{
  "source": "patent US20260070945A1",
  "about": "“MACROCYCLIC IMMUNOMODULATORS” (Bristol-Myers Squibb Company, priority 2022, published 2026)",
  "note": "*1 amine or outer side, *2 acyl side, *3 side chain or, on linkers, in order; H or OH if unused. Where a SMILES comes first, the peptide text is derived from it. Bridges are numbered along the chain shown (N, C = ends). [ ]: non-standard residue; d: D form. The star is where a group is joined. ξ: configuration not given here. Phe(3-CF3) = N[C@@H](Cc1cccc(C(F)(F)F)c1)C(=O)O; Ala(morpholin-4-yl) = N[C@@H](CN1CCOCC1)C(=O)O; Phe(4-COOH) = N[C@@H](Cc1ccc(C(=O)O)cc1)C(=O)O; Bip = N[C@@H](Cc1ccc(-c2ccccc2)cc1)C(=O)O; NH(CH2)14COOH = O=C(O)CCCCCCCCCCCCCCN*; Phe(3-Me) = Cc1cccc(C[C@H](N)C(=O)O)c1; γGlu = O=C(O)[C@H](CCC(=O)[*:2])N[*:1]; NH(CH2)12COOH = O=C(O)CCCCCCCCCCCCN*; Val(3-OH) = CC(C)(O)[C@H](N)C(=O)O; aIle = CC[C@@H](C)[C@H](N)C(=O)O; 4Pal = N[C@@H](Cc1ccncc1)C(=O)O; Cha = N[C@@H](CC1CCCCC1)C(=O)O; Cit = NC(=O)NCCC[C@H](N)C(=O)O; Thr(3ξ) = CC(O)[C@H](N)C(=O)O; 12Ado = NCCCCCCCCCCCC(=O)O; Carboxymethyl = O=C(O)C*; NMeA = CN[C@@H](C)C(=O)O; Orn = NCCC[C@H](N)C(=O)O; dDap = NC[C@@H](N)C(=O)O; Aun = NCCCCCCCCCCC(=O)O; Dab = NCC[C@H](N)C(=O)O; Dap = NC[C@H](N)C(=O)O; AEEA = NCCOCCOCC(=O)O",
  "data": [
    {"biological_target": "T1, PD-1/PD-L1 interaction (PE-labeled human PD-L1-Ig binding to Jurkat cell line over-expressing human PD-1) (Homo sapiens, UniProt Q15116)", "T1 construct": "expressed in transfected cells; host or cells: Jurkat", "T1 sequence (Q15116 25-288)": "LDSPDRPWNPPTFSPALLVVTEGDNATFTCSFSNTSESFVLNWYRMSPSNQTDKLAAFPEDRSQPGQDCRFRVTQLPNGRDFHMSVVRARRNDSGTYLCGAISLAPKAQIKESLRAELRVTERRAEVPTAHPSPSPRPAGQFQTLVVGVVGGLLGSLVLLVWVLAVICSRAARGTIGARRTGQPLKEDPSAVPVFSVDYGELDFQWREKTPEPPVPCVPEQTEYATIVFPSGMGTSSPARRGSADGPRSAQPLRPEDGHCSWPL", "experiment": "Jurkat-PD-1 Cell Binding High-Content Screening Assay (CBA)", "settings": "Jurkat-hPD-1 cells, PE-labeled PD-L1-Ig 20 nM final; read-out: Jurkat HPD1 PDL1 IC50", "outline": "(§1)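 Jurkat cells overexpressing human PD-1 (8×10^3/well, DMEM + 10% FCS) preincubated with compound 2 h at 37 °C, then PE-labelled human PD-L1-Ig (20 nM final) for 1 h. Cells fixed in paraformaldehyde with Hoechst 33342; bound PD-L1 quantified by high-content imaging.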", "units": {"IC50": "nM"}, "values": [
      {"smiles": "Cc1cccc(C[C@@H]2NC(=O)[C@H](CC(=O)O)NC(=O)[C@H](Cc3ccc(C(=O)O)cc3)NC(=O)[C@H](Cc3ccncc3)NC(=O)CSC[C@@H](C(=O)N[C@@H](CCN)C(=O)NCCOCCOCC(=O)NCCCCCCCCCCC(=O)O)NC(=O)[C@H](CCCN)NC(=O)[C@H](C(C)C)NC(=O)[C@H](CC3CCCCC3)NC(=O)[C@H](CCN)NC(=O)[C@@H](CC(C)C)NC(=O)[C@H](C)N(C)C(=O)[C@H](Cc3ccc(OCC(=O)O)cc3)NC(=O)[C@H](Cc3ccc(-c4ccccc4)cc3)NC(=O)[C@H](Cc3ccc(OCC(=O)O)cc3)NC2=O)c1", "note": "[Example 1405] ({CH2CO}-[4Pal][Phe(4-COOH)]D[Phe(3-Me)]Y(Carboxymethyl)[Bip]Y(Carboxymethyl)[NMeA][dL][Dab][Cha]V[Orn]C[Dab][AEEA][Aun]-OH; thioether N-14)", "IC50": 23.6},
      {"smiles": "Cc1cccc(C[C@@H]2NC(=O)[C@H](CC(=O)O)NC(=O)[C@H](Cc3ccc(OCC(=O)O)cc3)NC(=O)[C@H]([C@@H](C)O)NC(=O)CSC[C@@H](C(=O)N[C@@H](CCCN)C(=O)NCCOCCOCC(=O)NCCCCCCCCCCC(=O)O)NC(=O)[C@H]([C@@H](C)O)NC(=O)[C@H](C(C)C)NC(=O)[C@H](CC3CCCCC3)NC(=O)[C@H](CC(N)=O)NC(=O)[C@@H](CC(C)C)NC(=O)[C@H](C)N(C)C(=O)[C@H](Cc3ccc(OCC(=O)O)cc3)NC(=O)[C@H](Cc3ccc(-c4ccccc4)cc3)NC(=O)[C@H](Cc3ccc(OCC(=O)O)cc3)NC2=O)c1", "note": "[Example 1365] ({CH2CO}-TY(Carboxymethyl)D[Phe(3-Me)]Y(Carboxymethyl)[Bip]Y(Carboxymethyl)[NMeA][dL]N[Cha]VTC[Orn][AEEA][Aun]-OH; thioether N-14)", "IC50": 59.7},
      {"smiles": "CC(C)C[C@H]1NC(=O)[C@H](C)N(C)C(=O)[C@H](CCCNC(N)=O)NC(=O)[C@H](Cc2ccc(-c3ccccc3)cc2)NC(=O)[C@H](Cc2ccc(C(=O)O)cc2)NC(=O)[C@H](Cc2cccc(C(F)(F)F)c2)NC(=O)[C@H](CC(=O)O)NC(=O)[C@H](Cc2ccc(OCC(=O)O)cc2)NC(=O)[C@H](CN2CCOCC2)NC(=O)CSC[C@@H](C(=O)N[C@@H](CCN)C(=O)NCCCCCCCCCCCCC(=O)O)NC(=O)[C@H](CO)NC(=O)[C@H](C(C)(C)O)NC(=O)[C@H](CC2CCCCC2)NC(=O)[C@H](CCN)NC1=O", "note": "[Example 1156] ({CH2CO}-[Ala(morpholin-4-yl)]Y(Carboxymethyl)D[Phe(3-CF3)][Phe(4-COOH)][Bip][Cit][NMeA][dL][Dab][Cha][Val(3-OH)]SC[Dab]-{NH(CH2)12COOH}; thioether N-14)", "IC50": 15.1},
      {"smiles": "CC[C@H](C)[C@@H]1NC(=O)[C@H](Cc2ccc(-c3ccccc3)cc2)NC(=O)[C@H](CC(C)C)NC(=O)[C@H](Cc2c[nH]c3ccccc23)NC(=O)[C@H](CC(=O)O)NC(=O)[C@H](Cc2ccc(C(=O)O)cc2)NC(=O)[C@H](Cc2ccc(OCC(=O)O)cc2)NC(=O)CSC[C@@H](C(=O)N[C@@H](CN)C(=O)NCCOCCOCC(=O)NCCCCCCCCCCC(=O)O)NC(=O)[C@H](CO)NC(=O)[C@H](C(C)C)NC(=O)[C@H](CC2CCCCC2)NC(=O)[C@H](CCN)NC(=O)[C@@H](CC(C)C)NC(=O)[C@H](C)N(C)C1=O", "note": "[Example 1076] ({CH2CO}-Y(Carboxymethyl)[Phe(4-COOH)]DWL[Bip]I[NMeA][dL][Dab][Cha]VSC[Dap][AEEA][Aun]-OH; thioether N-14)", "IC50": 16.5},
      {"smiles": "CC[C@@H](C)[C@@H]1NC(=O)[C@H](Cc2ccc(-c3ccccc3)cc2)NC(=O)[C@H](C(C)C)NC(=O)[C@H](Cc2c[nH]c3ccccc23)NC(=O)[C@H](CC(=O)O)NC(=O)[C@H](Cc2ccc(C(=O)O)cc2)NC(=O)[C@H](Cc2ccc(OCC(=O)O)cc2)NC(=O)CSC[C@@H](C(=O)N[C@H](CN)C(=O)NCCOCCOCC(=O)N[C@@H](CCC(=O)NCCOCCOCC(=O)N[C@@H](CCC(=O)NCCOCCOCC(=O)N[C@@H](CCCN)C(=O)NCCCCCCCCCCC(=O)O)C(=O)O)C(=O)O)NC(=O)[C@H](CO)NC(=O)[C@H](C(C)C)NC(=O)[C@H](CC2CCCCC2)NC(=O)[C@H](CC(N)=O)NC(=O)[C@@H](CC(C)C)NC(=O)[C@H](C)N(C)C1=O", "note": "[Example 2018] ({CH2CO}-Y(Carboxymethyl)[Phe(4-COOH)]DWV[Bip][aIle][NMeA][dL]N[Cha]VSC[dDap][AEEA][γGlu][AEEA][γGlu][AEEA][Orn][Aun]-OH; thioether N-14)", "IC50": 73.7},
      {"smiles": "CC(C)C[C@H]1NC(=O)[C@H](C)N(C)C(=O)[C@H](C(C)C)NC(=O)[C@H](Cc2ccc(-c3ccccc3)cc2)NC(=O)[C@H](C(C)C)NC(=O)[C@H](Cc2c[nH]c3ccccc23)NC(=O)[C@H](CC(=O)O)NC(=O)[C@H](Cc2ccc(OCC(=O)O)cc2)NC(=O)[C@H](CCCNC(=N)N)NC(=O)CSC[C@@H](C(=O)N[C@H](CC(N)=O)C(=O)NCCOCCOCC(=O)NCCCCCCCCCCCC(=O)O)NC(=O)[C@H](CCCCN)NC(=O)[C@H](C(C)C)NC(=O)[C@H](CC2CCCCC2)NC(=O)[C@H](CCN)NC1=O", "note": "[Example 2204] ({CH2CO}-RY(Carboxymethyl)DWV[Bip]V[NMeA][dL][Dab][Cha]VKC[dN][AEEA][12Ado]-OH; thioether N-14)", "IC50": 20.3},
      {"smiles": "CC(C)C[C@H]1NC(=O)[C@H](C)N(C)C(=O)[C@H](Cc2ccc(OCC(=O)O)cc2)NC(=O)[C@H](Cc2ccc(-c3ccccc3)cc2)NC(=O)[C@H](Cc2ccc(OCC(=O)O)cc2)NC(=O)[C@H](Cc2c[nH]c3ccccc23)NC(=O)[C@H](CC(=O)O)NC(=O)[C@H](Cc2ccc(OCC(=O)O)cc2)NC(=O)[C@H]([C@@H](C)O)NC(=O)CSC[C@@H](C(=O)N[C@@H](CCN)C(=O)NCCOCCOCC(=O)NCCCCCCCCCCC(=O)O)NC(=O)[C@H](CCCN)NC(=O)[C@H](C(C)C)NC(=O)[C@H](CC2CCCCC2)NC(=O)[C@H](CC(N)=O)NC1=O", "note": "[Example 1384] ({CH2CO}-TY(Carboxymethyl)DWY(Carboxymethyl)[Bip]Y(Carboxymethyl)[NMeA][dL]N[Cha]V[Orn]C[Dab][AEEA][Aun]-OH; thioether N-14)", "IC50": 193}
    ]},
    {"biological_target": "T1, PD-1/PD-L1 interaction (PE-labeled human PD-L1-Ig binding to Jurkat cell line over-expressing human PD-1)", "experiment": "Jurkat-PD-1 Cell Binding High-Content Screening Assay (CBA)", "settings": "PE-labeled PD-L1-Ig 20 nM final, Jurkat-hPD-1 cells; read-out: Jurkat HPD1 PDL1 IC50", "outline": "as §1", "units": {"IC50": "nM"}, "values": [
      {"smiles": "CC(C)C[C@H]1NC(=O)[C@H](C)N(C)C(=O)[C@H](Cc2ccc(OCC(=O)O)cc2)NC(=O)[C@H](Cc2ccc(-c3ccccc3)cc2)NC(=O)[C@H](Cc2ccc(C(=O)O)cc2)NC(=O)[C@H](Cc2cccc(C(F)(F)F)c2)NC(=O)[C@H](CC(=O)O)NC(=O)[C@H](Cc2ccc(OCC(=O)O)cc2)NC(=O)[C@H](C(C)O)NC(=O)CSC[C@@H](C(=O)N[C@@H](CCN)C(=O)NCCCCCCCCCCCCCCC(=O)O)NC(=O)[C@H](CCC(=O)O)NC(=O)[C@H](C(C)C)NC(=O)[C@H](CC2CCCCC2)NC(=O)[C@H](CCN)NC1=O", "note": "(stereo partly drawn) [Example 2602] ({CH2CO}-[Thr(3ξ)]Y(Carboxymethyl)D[Phe(3-CF3)][Phe(4-COOH)][Bip]Y(Carboxymethyl)[NMeA][dL][Dab][Cha]VEC[Dab]-{NH(CH2)14COOH}; thioether N-14)", "IC50": 192},
      {"smiles": "Cc1cccc(C[C@@H]2NC(=O)[C@H](CC(=O)O)NC(=O)[C@H](Cc3ccc(OCC(=O)O)cc3)NC(=O)[C@H](Cc3ccncc3)NC(=O)CSC[C@@H](C(=O)N[C@@H](CCN)C(=O)NCCCCCCCCCCC(=O)O)NC(=O)[C@H](Cc3cnc[nH]3)NC(=O)[C@H](C(C)(C)O)NC(=O)[C@H](CC3CCCCC3)NC(=O)[C@H](CCN)NC(=O)[C@@H](CC(C)C)NC(=O)[C@H](C)N(C)C(=O)[C@H](Cc3ccc(OCC(=O)O)cc3)NC(=O)[C@H](Cc3ccc(-c4ccccc4)cc3)NC(=O)[C@H](Cc3ccc(OCC(=O)O)cc3)NC2=O)c1", "note": "[Example 2467] ({CH2CO}-[4Pal]Y(Carboxymethyl)D[Phe(3-Me)]Y(Carboxymethyl)[Bip]Y(Carboxymethyl)[NMeA][dL][Dab][Cha][Val(3-OH)]HC[Dab][Aun]-OH; thioether N-14)", "IC50": 161}
    ]}
  ]
}
